Values belong to the compound of their own block, whether it stands above or below them.
Experiments:
Format in all cases: physicochemical
[1] = Bulk density by cylinder knocking method
[2] = Repose angle by fixed funnel method (flowability)
Source text: Repeated the method of patent CN200710094131.0 to obtain fine loose allisartan isoproxil powder (referred to as literature crystal), measured the response angle by fixed funnel method.

[3] = Stability study of influence factors (high temperature, high humidity, light); conditions: for Stability under influence factors (conclusion in words): photostability, high humidity and high temperature study
Procedure: Stability study on the mentioned polymorph in Example 1 was performed in high temperature, high humidity and light conditions to study the influence factors.

[4] = Observation of electrostatic phenomenon of the crystal; conditions: compared with the crystal disclosed
Procedure: Added 33 ml of isopropanol and 66 ml of n-heptane in the remainder (allisartan isoproxil crude), heated to 76° C. and stirred for 2 h, then cooled to 60° C. and stirred for 1 h. Cooled the system slowly to 0° C., continued to stir for 3 h. Filtered, and washed the filter cake with n-heptane.

[5] = high humidity test 25° C., RH 92.5%, day 0
[6] = high humidity test 25° C., RH 92.5%, day 5
[7] = high humidity test 25° C., RH 92.5%, day 10
[8] = high temperature test 60° C., day 0
[9] = high temperature test 60° C., day 5
[10] = high temperature test 60° C., day 10
[11] = photostability test 4500lx ± 500lx, day 0
[12] = photostability test 4500lx ± 500lx, day 5
[13] = photostability test 4500lx ± 500lx, day 10

SMILES: CCCCc1nc(Cl)c(C(=O)OCOC(=O)OC(C)C)n1Cc1ccc(-c2ccccc2-c2nnn[nH]2)cc1 [Example 3, 2-butyl-4-chloro-1-[2′-(1H-tetrazol-5-yl)-1, 1′-biphenyl-methyl]-imidazole-5-carboxylic acid, 1-[(isopropoxy)-carbonyloxy]methyl ester]
Bulk density [1]: 0.77 g/mL
Repose angle [2]: 33-35 °
Stability under influence factors (conclusion in words) [3]: same result with that of Example 1

SMILES: CCCCc1nc(Cl)c(C(=O)OCOC(=O)OC(C)C)n1Cc1ccc(-c2ccccc2-c2nnn[nH]2)cc1 [Example 1, 2-butyl-4-chloro-1-[2′-(1H-tetrazol-5-yl)-1, 1′-biphenyl-methyl]-imidazole-5-carboxylic acid, 1-[(isopropoxy)-carbonyloxy]methyl ester]
Bulk density [1]: 0.75 g/mL
Electrostatic phenomenon [4]: does not have obvious electrostatic phenomenon
Repose angle [2]: 34-36 °
Sum of impurities [3, 5]: 0.39%
Weight gained [3, 5]: 0%
Sum of impurities [3, 6]: 0.37%
Weight gained [3, 6]: 0%
Sum of impurities [3, 7]: 0.38%
Weight gained [3, 7]: 0%
Sum of impurities [3, 8]: 0.39%
Weight gained [3, 8]: 0%
Sum of impurities [3, 9]: 0.39%
Weight gained [3, 9]: 0%
Sum of impurities [3, 10]: 0.39%
Weight gained [3, 10]: 0%
Sum of impurities [3, 11]: 0.39%
Weight gained [3, 11]: 0%
Sum of impurities [3, 12]: 0.37%
Weight gained [3, 12]: 0%
Sum of impurities [3, 13]: 0.38%
Weight gained [3, 13]: 0%
Stability under influence factors (conclusion in words) [3]: remained stable

SMILES: CCCCc1nc(Cl)c(C(=O)OCOC(=O)OC(C)C)n1Cc1ccc(-c2ccccc2-c2nnn[nH]2)cc1 [Example 2, 2-butyl-4-chloro-1-[2′-(1H-tetrazol-5-yl)-1, 1′-biphenyl-methyl]-imidazole-5-carboxylic acid, 1-[(isopropoxy)-carbonyloxy]methyl ester]
Bulk density [1]: 0.73 g/mL
Repose angle [2]: 35-37 °
Stability under influence factors (conclusion in words) [3]: same result with that of Example 1

More lines, now with the values ahead:

Bulk density [1]: 0.77 g/mL
Repose angle [2]: 35-38 °
Stability under influence factors (conclusion in words) [3]: same result with that of Example 1
SMILES: CCCCc1nc(Cl)c(C(=O)OCOC(=O)OC(C)C)n1Cc1ccc(-c2ccccc2-c2nnn[nH]2)cc1 [Example 4, 2-butyl-4-chloro-1-[2′-(1H-tetrazol-5-yl)-1, 1′-biphenyl-methyl]-imidazole-5-carboxylic acid, 1-[(isopropoxy)-carbonyloxy]methyl ester]

Bulk density [1]: 0.51 g/mL
Repose angle [2]: 48-53 °
SMILES: CCCCc1nc(Cl)c(C(=O)OCOC(=O)OC(C)C)n1Cc1ccc(-c2ccccc2-c2nnn[nH]2)cc1 [Literature crystal, 2-butyl-4-chloro-1-[2′-(1H-tetrazol-5-yl)-1, 1′-biphenyl-methyl]-imidazole-5-carboxylic acid, 1-[(isopropoxy)-carbonyloxy]methyl ester, reference compound]

— patent publication US10100039B2, “Allisartan isoproxil polymorph, its preparation method and pharmaceutical” (SHENZHEN SALUBRIS PHARMACEUTICALS CO., LTD, priority 2014, dated 2018)
